A word on the EC50: it is the concentration needed to bring the measured effect to its halfway point.

SMILES strings stand for the structures. Where two headings read alike, the source gives them in different places.

One assay concerns DENV-3. The assay is described as follows: Viral yield assay against DENV-3 in Vero cells. The class given is cell-based. As to conditions: Dengue virus, DENV3, viral yield assay. The essentials:
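Infect Vero cells with virus (MOI 0.1), add compound or DMSO, incubate at 37° C, collect progeny at 48 hours post infection, then titrate on Vero cells to obtain EC50.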

The subject of assay [1] is Dengue-2 (Strain New Guinea C). Nature of the assay: Viral yield assay against Dengue-2 in Vero cells. The class given is cell-based, Dengue virus. As to conditions: Dengue virus, read-out: Activity (EC50 in μM) DENV-2. The essentials: (§1)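 Progeny virus from compound-treated Vero monolayers infected at an MOI of 0.1 is collected after 48 h at 37° C and titered on Vero cells. DMSO serves as control.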

In a further assay the test system is DENV-4. The assay is described as follows: Viral yield assay against DENV-4 in Vero cells. The class given is cell-based. The settings on record: Dengue virus, DENV4, viral yield assay. An outline of the steps: as §1
The subject of a further assay is DENV-1. Nature of the assay: Viral yield assay against DENV-1 in Vero cells. The class given is cell-based. The settings on record: Dengue virus, DENV1, viral yield assay. An outline of the steps:
as §1

[2] abbreviates: DENV2, viral yield assay, Vero cells, MOI 0.1, 48 hours post infection.

Take `COc1ccc(NC(=O)c2sc3nc(-c4cccs4)ccc3c2N)cc1` [Compound 427, 3-amino-N-(4-methoxyphenyl)-6-(2-thienyl)thieno[2,3-b]pyridine-2-carboxamide]: the EC50 (in the assay with DENV-3; in assay [1] (setting [2]); in the assay with DENV-4; in the assay on DENV-1) was < 5 µM throughout.

Regarding `Nc1c(C(=O)Nc2ccc(OC(F)(F)F)cc2)sc2nc(-c3cccs3)ccc12` [Compound 428, 3-amino-6-(2-thienyl)-N-[4-(trifluoromethoxy)phenyl]thieno[2,3-b] pyridine-2-carboxamide], the EC50 (in the assay with DENV-3; in assay [1] (setting [2]); in the assay on DENV-4; in the assay on DENV-1) was < 5 µM throughout.

Consider `CC(=O)c1ccc(NC(=O)c2sc3nc(-c4cccs4)ccc3c2N)cc1` [Compound 429, N-(4-acetylphenyl)-3-amino-6-(2-thienyl)thieno[2,3-b]pyridine-2-carboxamide], for which the EC50 (in the assay with DENV-3; in assay [1] (setting [2]); with DENV-4; in the assay with DENV-1) was < 5 µM throughout.

For `COc1cccc(-c2ccc3c(N)c(C(=O)Nc4ccc(OC(F)(F)F)cc4)sc3n2)c1` [Compound 430, 3-amino-6-(3-methoxyphenyl)-N-[4-(trifluoromethoxy)phenyl]thieno[2,3-b] pyridine-2-carboxamide], the EC50 (in the assay on DENV-3; in assay [1] (setting [2]); in the assay with DENV-4; with DENV-1) was < 5 µM throughout.

Take `Nc1c(C(=O)Nc2cc(Cl)cc(Cl)c2)sc2nc(-c3cccs3)ccc12` [Compound 431, 3-amino-N-(3,5-dichloropehnyl)-6-(2-thienyl)thieno[2,3-b]pyridine-2-carboxamide]: the EC50 (with DENV-3; in assay [1] (setting [2]); with DENV-4; with DENV-1) was < 5 µM throughout.

On to `Nc1c(C(=O)Nc2cc(Cl)ccc2Cl)sc2nc(-c3cccs3)ccc12` [Compound 433, 3-amino-N-(2,5-dichlorophenyl)-6-(2-thienyl)thieno[2,3-b]pyridine-2-carboxamide], for which the EC50 (with DENV-3; in assay [1] (setting [2]); in the assay with DENV-4; with DENV-1) was < 5 µM throughout.

Take `Nc1c(C(=O)Nc2cccc(Cl)c2Cl)sc2nc(-c3cccs3)ccc12` [Compound 434, 3-amino-N-(2,3-dichlorophenyl)-6-(2-thienyl)thieno[2,3-b]pyridine-2-carboxamide]: the EC50 (with DENV-3; in assay [1] (setting [2]); with DENV-4; in the assay with DENV-1) was < 5 µM in each case.

Regarding `Nc1c(C(=O)Nc2ccccc2C(F)(F)F)sc2nc(-c3cccs3)ccc12` [Compound 437, 3-amino-6-(2-thienyl)-N-[2-(trilfuoromethyl)phenyl]thieno[2,3-b] pyridine-2-carboxamide], the concentration for a half-maximal effect (EC50) (in the assay on DENV-3; in assay [1] (setting [2]); in the assay on DENV-4; in the assay on DENV-1) was < 5 µM each time.

Consider `Cc1ccc(C)c(NC(=O)c2sc3nc(-c4cccs4)ccc3c2N)c1` [Compound 438, 3-amino-N-(2,5-dimethylphenyl)-6-(2-thienyl)thieno[2,3-b]pyridine-2-carboxamide], for which the EC50 (in the assay with DENV-3; in assay [1] (setting [2]); in the assay on DENV-4; in the assay on DENV-1) was < 5 µM each time.

Consider `Nc1c(C(=O)Nc2ccc(Br)cc2)sc2nc(-c3ccco3)ccc12` [Compound 439, 3-amino-N-(4-bromophenyl)-6-(2-furyl)thieno[2,3-b]pyridine-2-carboxamide], for which the EC50 is < 5 µM in the assay on DENV-3; < 5 µM in assay [1] (DENV2, Vero, 48 h); < 5 µM in the assay with DENV-4; < 5 µM in the assay with DENV-1.

As to `COc1ccc(OC)c(NC(=O)c2sc3nc(-c4cccs4)ccc3c2N)c1` [Compound 441, 3-amino-N-(2,5-dimethoxyphenyl)-6-(2-thienyl)thieno[2,3-b]pyridine-2-carboxamide], the EC50 in the assay on DENV-3 was < 5 µM; in assay [1] (DENV2, Vero, 48 h), < 5 µM; with DENV-4 it was < 5 µM; in the assay with DENV-1, < 5 µM.

Consider `Nc1c(C(=O)Nc2cccc(Cl)c2)sc2nc(-c3cccs3)ccc12` [Compound 445, 3-amino-N-(3-chlorophenyl)-6-(2-thienyl)thieno[2,3-b]pyridine-2-carboxamide], for which the EC50 (in the assay on DENV-3; in assay [1] (setting [2]); in the assay with DENV-4; in the assay with DENV-1) was < 5 µM in each case.

Consider `COc1cccc(-c2ccc3c(N)c(C(=O)Nc4ccc(Br)cc4)sc3n2)c1` [Compound 446, 3-amino-N-(4-bromophenyl)-6-(3-methoxyphenyl)thieno[2,3-b]pyridine-2-carboxamide], for which the EC50 (in the assay with DENV-3; in assay [1] (setting [2]); with DENV-4; in the assay with DENV-1) was < 5 µM throughout.

On to `COc1cccc(-c2ccc3c(N)c(C(=O)Nc4cccc(Br)c4)sc3n2)c1` [Compound 447, 3-amino-N-(3-bromophenyl)-6-(3-methoxyphenyl)thieno[2,3-b]pyridine-2-carboxamide], for which the EC50 (with DENV-3; in assay [1] (setting [2]); in the assay with DENV-4; with DENV-1) was < 5 µM throughout.

As to `COc1cccc(-c2ccc3c(N)c(C(=O)Nc4ccc(C(F)(F)F)cc4)sc3n2)c1` [Compound 448, 3-amino-6-(3-methoxyphenyl)-N-[4-(trifluoromethyl)phenyl]thieno[2,3-b] pyridine-2-carboxamide], the EC50 (with DENV-3; in assay [1] (setting [2]); in the assay on DENV-4; with DENV-1) was < 5 µM throughout.

On to `COc1cccc(-c2ccc3c(N)c(C(=O)Nc4ccccc4C(F)(F)F)sc3n2)c1` [Compound 449, 3-amino-6-(3-methoxyphenyl)-N-[2-(trifluoromethyl)phenyl]thieno[2,3-b] pyridine-2-carboxamide], for which the EC50 (in the assay with DENV-3; in assay [1] (setting [2]); with DENV-4; with DENV-1) was < 5 µM throughout.

For `COc1cccc(-c2ccc3c(N)c(C(=O)Nc4cccc(C(F)(F)F)c4)sc3n2)c1` [Compound 450, 3-amino-6-(3-methoxyphenyl)-N-[3-(trifluoromethyl)phenyl]thieno[2,3-b] pyridine-2-carboxamide], the EC50 (in the assay with DENV-3; in assay [1] (setting [2]); in the assay on DENV-4; with DENV-1) was < 5 µM in each case.

On to `Nc1c(C(=O)Nc2ccc(C(F)(F)F)cc2)sc2nc(-c3ccc4c(c3)OCO4)ccc12` [Compound 452, 3-amino-6-(1,3-benzodioxol-5-yl)-N-[4-(trifluoromethyl)phenyl]thieno[2,3-b] pyridine-2-carboxamide], for which the half-maximal effective concentration (EC50) (in the assay on DENV-3; in assay [1] (setting [2]); in the assay on DENV-4; with DENV-1) was < 5 µM each time.

For the compound `Nc1c(C(=O)Nc2cccc(C(F)(F)F)c2)sc2nc(-c3ccc4c(c3)OCO4)ccc12` [Compound 453, 3-amino-6-(1,3-benzodioxol-5-yl)-N-[3-(trifluoromethyl)phenyl]thieno[2,3-b] pyridine-2-carboxamide], the EC50 (in the assay with DENV-3; in assay [1] (setting [2]); in the assay with DENV-4; in the assay with DENV-1) was < 5 µM throughout.

`COc1ccc(-c2ccc3c(N)c(C(=O)Nc4cccc(Br)c4)sc3n2)cc1` [Compound 454, 3-amino-N-(3-bromophenyl)-6-(4-methoxyphenyl)thieno[2,3-b]pyridine-2-carboxamide]: the concentration for a half-maximal effect (EC50) (in the assay on DENV-3; in assay [1] (setting [2]); with DENV-4; in the assay on DENV-1) was < 5 µM in each case.

For the compound `Nc1c(C(=O)Nc2ccc(C(F)(F)F)cc2)sc2nc(-c3ccc(F)cc3)ccc12` [Compound 455, 3-amino-6-(4-fluorophenyl)-N-[4-(trilfuoromethyl)phenyl]thieno[2,3-b] pyridine-2-carboxamide], the EC50 was < 5 µM in the assay on DENV-3, < 5 µM in assay [1] (setting [2]), 5 to 25 µM in the assay with DENV-4 and < 5 µM in the assay on DENV-1.

In the case of `Cc1ccc(NC(=O)c2sc3nc(-c4cccs4)ccc3c2N)cc1F` [Compound 458, 3-amino-N-(3-fluoro-4-methyl-phenyl)-6-(2-thienyl)thieno [2,3-b]pyridine-2-carboxamide], the concentration giving a half-maximal response (EC50) (in the assay with DENV-3; in assay [1] (setting [2]); with DENV-4; in the assay with DENV-1) was < 5 µM in each case.

In the case of `Nc1c(C(=O)Nc2ccc(C(F)(F)F)cc2)sc2nc(-c3cccs3)ccc12` [Compound 459, 3-amino-6-(2-thienyl)-N-[4-(trifluoromethyl)phenyl]thieno[2,3-b] pyridine-2-carboxamide], the EC50 (with DENV-3; in assay [1] (setting [2]); in the assay on DENV-4; in the assay on DENV-1) was < 5 µM in each case.

Consider `Nc1c(C(=O)Nc2ccc(F)c(F)c2)sc2nc(-c3cccs3)ccc12` [Compound 461, 3-amino-N-(3,4-difluorophenyl)-6-(2-thienyl)thieno[2,3-b]pyridine-2-carboxamide], for which the EC50 (in the assay with DENV-3; in assay [1] (setting [2]); in the assay on DENV-4; in the assay on DENV-1) was < 5 µM each time.

For the compound `Nc1c(C(=O)Nc2ccccc2Br)sc2nc(-c3cccs3)ccc12` [Compound 462, 3-amino-N-(2-bromophenyl)-6-(2-thienyl)thieno[2,3-b]pyridine-2-carboxamide], the EC50 (in the assay on DENV-3; in assay [1] (setting [2]); with DENV-4; in the assay with DENV-1) was < 5 µM each time.

(Values after patent US20170121344A1 (Siga Technologies, Inc., priority 2009, published 2017).)
